Assay results reported in patent US10329289B2, “6,7-dihydro-5H-pyrrolo[3,4-B]pyridin-5-one allosteric modulators of the M4 muscarinic acetylcholine receptor” (Merck Sharp & Dohme Corp., priority 2015, dated 2019).

Biological target: T1, human M4 muscarinic acetylcholine receptor (Homo sapiens, UniProt P08173)
T1 construct: expressed in transfected cells; host or cells: CHO-K1
T1 sequence (P08173 1-479): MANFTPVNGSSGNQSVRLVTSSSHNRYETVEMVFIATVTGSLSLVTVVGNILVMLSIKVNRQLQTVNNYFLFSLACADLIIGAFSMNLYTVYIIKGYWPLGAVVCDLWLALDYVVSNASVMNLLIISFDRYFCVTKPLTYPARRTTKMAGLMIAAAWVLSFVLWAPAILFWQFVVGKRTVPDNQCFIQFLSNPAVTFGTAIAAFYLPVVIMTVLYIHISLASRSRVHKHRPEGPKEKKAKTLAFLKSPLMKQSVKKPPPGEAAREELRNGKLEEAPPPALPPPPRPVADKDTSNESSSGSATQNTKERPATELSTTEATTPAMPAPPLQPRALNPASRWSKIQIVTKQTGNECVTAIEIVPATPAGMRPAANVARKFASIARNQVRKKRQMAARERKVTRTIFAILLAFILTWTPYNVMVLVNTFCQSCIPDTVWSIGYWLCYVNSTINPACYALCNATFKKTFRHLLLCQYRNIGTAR
Assay: human FLIPR-based M4 PAM assay (Ca2+ mobilization, CHO-K1 cells with human M4 receptor and Gαqi5)
Assay type: cell-based
Details: acetylcholine at 20% of maximum response, read-out: M4 PAM IP
Method in brief: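 Calcium-mobilization (FLIPR) readout in dye-loaded CHO-K1 cells co-expressing human M4 receptor and Gαqi5. Potentiation measured against acetylcholine at a concentration giving 20% of maximal response, with an optional 70% addition; the reported value is the curve inflection point from a 4-parameter logistic fit.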

EC50	SMILES
0.017 µM	Cc1cc2c(nc1N1CCC(Oc3ccc4c(c3)CC(O)C4)CC1)CNC2=O (stereo not drawn) [Example 324, 2-(4-((2-Hydroxy-2,3-dihydro-1H-inden-5-yl)oxy)piperidin-1-yl)-3-methyl-6,7-dihydro-5H-pyrrolo[3,4-b]pyridin-5-one]
0.42 µM	Cc1cc2c(nc1N1CCC(Oc3ccc(NCCO)nc3)CC1)CNC2=O [Example 324E, 2-(4-((6-((2-Hydroxyethyl)amino)pyridin-3-yl)oxy)piperidin-1-yl)-3-methyl-6,7-dihydro-5H-pyrrolo[3,4-b]pyridin-5-one]
0.204 µM	Cc1cc2c(nc1N1CCC(Oc3cccc(C#N)c3)CC1)CN(P(=O)(O)O)C2=O [Example 325, Ammonium (2-(4-(3-cyanophenoxy)piperidin-1-yl)-3-methyl-5-oxo-5,7-dihydro-6H-pyrrolo[3,4-b]pyridin-6-yl)phosphonate]
1.66 µM	Cc1cc2c(nc1N1CCC(Oc3ccc(O)nc3)CC1)CNC2=O [Example 326, 2-(4-((6-Hydroxypyridin-3-yl)ox)piperidin-1-yl)-3-methyl-6,7-dihydro-5H-pyrrolo[3,4-b]pyridin-5-one]
0.205 µM	COc1ccc(OC2CCN(c3nc4c(cc3Cl)C(=O)NC4)CC2)cn1 [Example 327, 3-Chloro-2-(4-((6-methoxypyridin-3-yl)ox)piperidin-1-yl)-6,7-dihydro-5H-pyrrolo[3,4-b]pyridin-5-one]
0.061 µM	Cc1c(N2CCC(Oc3ccc4c(c3)COC4)CC2)nc2c(c1C)C(=O)NC2 [Example 328, 2-(4-((1,3-Dihydro-2-benzofuran-5-yl)oxy)piperidin-1-yl)-3,4-dimethyl-6,7-dihydro-5H-pyrrolo[3,4-b]pyridin-5-one]
0.051 µM	Cc1c(N2CCC(OCC3CCC3)CC2)nc2c(c1C)C(=O)NC2 [Example 330, 2-(4-(cyclobutylmethoxy)piperidin-1-yl)-3,4-dimethyl-6,7-dihydro-5H-pyrrolo[3,4-b]pyridin-5-one]
0.033 µM	Cc1c(N2CCC(Oc3cnn(C)c3)CC2)nc2c(c1C)C(=O)NC2 [Example 331, 3,4-dimethyl-2-(4-((1-methyl-1H-pyrazol-4-yl)oxy)piperidin-1-yl)-6,7-dihydro-5H-pyrrolo[3,4-b]pyridin-5-one]
0.368 µM	Cc1c(N2CCC(Oc3ccc4c(c3)COCC4)CC2)nc2c(c1C)C(=O)NC2 [Example 332, 2-(4-(isochroman-7-yloxy)piperidin-1-yl)-3,4-dimethyl-6,7-dihydro-5H-pyrrolo[3,4-b]pyridin-5-one]
0.037 µM	Cc1c(N2CCC(Oc3ccc4c(c3)OCC4)CC2)nc2c(c1C)C(=O)NC2 [Example 333, 2-(4-((2,3-dihydrobenzofuran-6-yl)oxy)piperidin-1-yl)-3,4-dimethyl-6,7-dihydro-5H-pyrrolo[3,4-b]pyridin-5-one]
0.067 µM	Cc1c(N2CCC(Oc3ccc4c(c3)C[C@H](O)C4)CC2)nc2c(c1C)C(=O)NC2 [Example 334A, (R)-2-(4-((2-hydroxy-2,3-dihydro-1H-inden-5-yl)oxy)piperidin-1-yl)-3,4-dimethyl-6,7-dihydro-5H-pyrrolo[3,4-b]pyridin-5-one]
0.038 µM	Cc1c(N2CCC(Oc3ccc4c(c3)C[C@@H](O)C4)CC2)nc2c(c1C)C(=O)NC2 [Example 334B, (S)-2-(4-((2-hydroxy-2,3-dihydro-1H-inden-5-yl)oxy)piperidin-1-yl)-3,4-dimethyl-6,7-dihydro-5H-pyrrolo[3,4-b]pyridin-5-one]
0.245 µM	CO[C@@H]1Cc2ccc(OC3CCN(c4nc5c(c(C)c4C)C(=O)NC5)CC3)cc2C1 [Example 335A, (R)-2-(4-((2-methoxy-2,3-dihydro-1H-inden-5-yl)oxy)piperidin-1-yl)-3,4-dimethyl-6,7-dihydro-5H-pyrrolo[3,4-b]pyridin-5-one]
0.259 µM	CO[C@H]1Cc2ccc(OC3CCN(c4nc5c(c(C)c4C)C(=O)NC5)CC3)cc2C1 [Example 335B, (5)-2-(4-((2-methoxy-2,3-dihydro-1H-inden-5-yl)oxy)piperidin-1-yl)-3,4-dimethyl-6,7-dihydro-5H-pyrrolo[3,4-b]pyridin-5-one]
0.182 µM	Cc1c(N2CCC(Oc3ccc4c(c3)CCOC4)CC2)nc2c(c1C)C(=O)NC2 [Example 336, 2-(4-(isochroman-6-yloxy)piperidin-1-yl)-3,4-dimethyl-6,7-dihydro-5H-pyrrolo[3,4-b]pyridin-5-one]
0.65 µM	Cc1c(N2CC[C@@H](Oc3cnn(C)c3)C(F)(F)C2)nc2c(c1C)C(=O)NC2 [Example 336B, (R)-2-(3,3-difluoro-4-((1-methyl-1H-pyrazol-4-yl)oxy)piperidin-1-yl)-3,4-dimethyl-6,7-dihydro-5H-pyrrolo[3,4-b]pyridin-5-one]
0.033 µM	Cc1c(N2CC[C@H](Oc3cnn(C)c3)C(F)(F)C2)nc2c(c1C)C(=O)NC2 [Example 336C, (S)-2-(3,3-difluoro-4-((l-methyl-1H-pyrazol-4-yl)oxy)piperidin-1-yl)-3,4-dimethyl-6,7-dihydro-5H-pyrrolo[3,4-b]pyridin-5-one]
0.04 µM	Cc1cc2c(nc1N1CCC(OCC3(C)CC3)CC1)CN(C)C2=O [Example 338, 3,6-dimethyl-2-(4-((1-methylcyclopropyl)methoxy)piperidin-1-yl)-6,7-dihydro-5H-pyrrolo[3,4-b]pyridin-5-one]
0.013 µM	Cc1cc2c(nc1N1CCC(OCC3(C)CC3)CC1)[C@@H](CO)N(C)C2=O [Example 339, (S)-7-(hydroxymethyl)-3,6-dimethyl-2-(4-((1-methylcyclopropyl)methoxy)piperidin-1-yl)-6,7-dihydro-5H-pyrrolo[3,4-b]pyridin-5-one]
2.98 µM	Cc1cc2c(nc1N1CCC(OCC3(C)CC3)CC1)[C@H](CO)N(C)C2=O [Example 340, (R)-7-(hydroxymethyl)-3,6-dimethyl-2-(4-((1-methylcyclopropyl)methoxy)piperidin-1-yl)-6,7-dihydro-5H-pyrrolo[3,4-b]pyridin-5-one]
0.023 µM	CCc1cc2c(nc1N1CCC(OCC3(C)CC3)CC1)[C@@H](CO)N(C)C2=O [Example 341, (S)-3-ethyl-7-(hydroxymethyl)-6-methyl-2-(4-((1-methylcyclopropyl)methoxy)piperidin-1-yl)-6,7-dihydro-5H-pyrrolo[3,4-b]pyridin-5-one]
0.009 µM	Cc1c(N2CC[C@@H](OCC3(C)CC3)[C@@H](F)C2)nc2c(c1C)C(=O)N(C)[C@@H]2CO [Example 341A, (S)-2-((3S,4R)-3-fluoro-4-((1-methylcyclopropyl)methoxy)piperidin-1-yl)-7-(hydroxymethyl)-3,4,6-trimethyl-6,7-dihydro-5H-pyrrolo[3,4-b]pyridin-5-one]
3.44 µM	CCc1cc2c(nc1N1CCC(OCC3(C)CC3)CC1)[C@H](CO)N(C)C2=O [Example 342, (R)-3-ethyl-7-(hydroxymethyl)-6-methyl-2-(4-((1-methylcyclopropyl)methoxy)piperidin-1-yl)-6,7-dihydro-5H-pyrrolo[3,4-b]pyridin-5-one]
0.884 µM	Cc1c(N2CC[C@@H](OCC3(C)CC3)[C@@H](F)C2)nc2c(c1C)C(=O)N(C)[C@H]2CO [Example 342A, (R)-2-((3S,4R)-3-fluoro-4-((1-methylcyclopropyl)methoxy)piperidin-1-yl)-7-(hydroxymethyl)-3,4,6-trimethyl-6,7-dihydro-5H-pyrrolo[3,4-b]pyridin-5-one]
